According to PubChem BioAssay (NCI):
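Results reflect a 48-hour exposure of cells in 96-well plates to compound at five concentrations. The concentration for full growth arrest is given as TGI.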

What was measured:
Assay in all cases: NCI tumour cell line growth inhibition, 48 h
BT-549 breast = tested on: BT-549 breast
DU-145 prostate = tested on: DU-145 prostate
HS 578T breast = tested on: HS 578T breast
MDA-MB-231 breast = tested on: MDA-MB-231 breast
MDA-MB-435 = tested on: MDA-MB-435
T-47D breast = tested on: T-47D breast
MDA-N = tested on: MDA-N
XF 498 CNS = tested on: XF 498 CNS
P388 leukemia = tested on: P388 leukemia
P388/ADR leukemia = tested on: P388/ADR leukemia
SN12K1 renal = tested on: SN12K1 renal

Measured: TGI

COc1cc2c3c(c4cc(OC)c(OC)cc4c2cc1OC)C(=O)C1CCC(=O)N1C3 (stereo unspecified)
> 100 µM: BT-549 breast | DU-145 prostate | HS 578T breast | MDA-MB-231 breast | MDA-MB-435 | T-47D breast

CCOC(=O)c1csc(NC(=O)CN2CCN(C)CC2)n1
> 100 µM: DU-145 prostate | MDA-MB-231 breast | MDA-MB-435 | MDA-N | T-47D breast

Cc1cccc(C(C)C)c1NC(=O)CC1Sc2ccccc2NC1=O (stereo unspecified)
> 100 µM: XF 498 CNS

COc1cc(/C=C/C(=O)O)ccc1C(=O)OCc1ccccc1
> 100 µM: P388 leukemia | P388/ADR leukemia | SN12K1 renal | XF 498 CNS
